According to patent US11919933B2, “Use of MYOG gene as target in preparation of drug for treating cardiomyocyte apoptosis-associated cardiovascular disease” (GUANGDONG BEATING ORIGIN REGENERATIVE MEDICINE CO., LTD., priority 2020, dated 2024):
Counter-ions that a name gives are not always drawn.

Columns and labels:
Assay type in all cases: cell-based, human
[1] = tested on: MYOG expression in hiPSC-MYOG cells; test: qPCR detection of MYOG mRNA expression levels after Dox induction; conditions: Dox 2 μg/mL
Experimental: 2.1 Induction: The expression of MYOG was induced by adding Dox (Sigma, D9891) at a final concentration of 2 μg/mL to STEMUP, and DMSO was used as a control. In the control group, only DMSO (denoted as C1) was added to STEMUP. In the experimental group, both DOX and DMSO were added to STEMUP, where DOX was first added to DMSO, and then a resulting mixture (denoted as C2) was added to STEMUP. A final concentration of DOX in STEMUP was 2 μg/mL, and the C1 and C2 were added at a same amount. 2.2 Total RNA extraction: The UN1Q-10 column Trizol total RNA extraction kit (Sangon Biotech, B511321-0100) was used to extract total RNA of the cells (a sample was treated with deoxyribonuclease I (DNase I, Sangon Biotech, B618252) for 30 min in advance). 2.3 Reverse transcription: RNA was reverse-transcribed with the reverse transcription kit iScript Reverse Transcription Supermix (Bio-Rad, 1708841). 2.4 qPCR detection of MYOG mRNA expression levels: According to the instructions of SsoAdvanced™ Universal SYBR® Green Supermix (Bio-Rad, 1725271), the PikoReal Real-Time PCR system (Thermo Fisher) was used to design primers with […] as an internal reference, and then MYOG expression levels in hiPSC and hiPSC-MYOG (Dox-induced group and DMSO control group) were detected. Sequences of the primers were as follows: […]

hiPSC-CMs [2] = test: TUNEL apoptosis test of angiotensin II-treated hiPSC-CMs; conditions: angiotensin II 100 μM and 1 mM, 10 d
Experimental: (§1) 2.1 Induction of hiPSC-CM apoptosis with angiotensin II: Purified hiPSC-CMs were cultivated in a cardiomyocyte medium (MedChemExpress, HY-13948) with angiotensin II at different concentrations (1 nM, 10 nM, 100 nM, 1 μM, 10 μM, 100 μM, and 1 mM), and the angiotensin II-containing medium was changed every 2 days.
2.2.3 TUNEL test: The TdT in situ apoptosis detection kit (R&D Systems, 4812-30-K) was used to detect the apoptosis of cardiomyocytes treated with angiotensin II (1 nM, 1 μM, 100 μM, and 1 mM) and untreated with angiotensin II on day 10. Cardiomyocytes were digested, then added on a glass slide, and stained according to the kit instructions, and nuclei were labeled with DAPI.

hiPSC-CMs [3] = test: Annexin V apoptosis assay (flow cytometry) of angiotensin II-treated hiPSC-CMs; conditions: angiotensin II 100 μM and 1 mM, 10 d
Experimental: as §1
2.2.2 The apoptosis of cardiomyocytes treated with angiotensin II (100 μM and 1 mM) and untreated with angiotensin II on day 10 was detected with the apoptosis assay kit Annexin V, Alexa Fluor™488 conjugate (Invitrogen, V13201). Cardiomyocytes were labeled with the apoptosis marker Annexin V and then assayed with a FACSAria™ II flow cytometer (BD).

hiPSC-MYOG-CMs = test: TUNEL apoptosis test of hiPSC-MYOG-CMs (Ang II / Dox groups); conditions: angiotensin II 1 mM, 6 d
Experimental: 5.1 Induction of hiPSC-MYOG-CM apoptosis with angiotensin II: Purified hiPSC-MYOG-CMs were divided into 4 groups (Ang II(+)&Dox(+), Ang II(+)&Dox(−), Ang II(−)&Dox(+), and Ang II(−)&Dox(−)) and then treated for 6 d with a Dox having a concentration of 2 μg/mL and an angiotensin II having a concentration of 1 mM.
5.3 Apoptosis assay: TUNEL test: The TdT in situ apoptosis detection kit (R&D Systems, 4812-30-K) was used to detect the apoptosis of cardiomyocytes in the 4 groups (Ang II(+)&Dox(+), Ang II(+)&Dox(−), Ang II(−)&Dox(+), and Ang II(−)&Dox(−)). Cardiomyocytes were digested, then added on a glass slide, and stained according to the kit instructions. Nuclei were labeled with DAPI.

hiPSC-CMs [4] = test: PrestoBlue cell viability assay of angiotensin II-treated hiPSC-CMs; conditions: angiotensin II 100 μM and 1 mM, long-term treatment (6 d and 10 d)
Experimental: as §1
2.2.1 A cardiomyocyte viability was detected with the PrestoBlue cell viability assay reagent (Invitrogen, A13261) at 24 h, 48 h, 6 d, and 10 d, and results are shown in FIG. 3.

Compound | expression level of MYOG in the Dox-induced group versus the DMSO control group [1] | proportion of apoptotic cells (TUNEL) (hiPSC-CMs [2]) | proportion of apoptotic cells (Annexin V) (hiPSC-CMs [3]) | apoptotic cell proportion relative to the control group (hiPSC-MYOG-CMs) [times] | cell viability (hiPSC-CMs [4])
C[C@H]1c2cccc(O)c2C(=O)C2=C(O)[C@]3(O)C(=O)C(C(N)=O)=C(O)[C@@H](N(C)C)[C@@H]3[C@@H](O)[C@@H]21 [Dox, doxycycline hydrochloride] | more than 100 times | – | – | – | –
angiotensin II (DRVYIHPF; Angiotensin-2; UniProt P01019 25-32, looked up) [common inducer for establishing cardiomyocyte apoptosis models] | – | increased significantly | increased significantly | 2.01 | decreased significantly
